In test [1] the target is T1, Histamine H3 receptor (Cavia porcellus, UniProt Q9JI35). Nature of the test: Histamine H3 functional assay, guinea pig ileum (ileal longitudinal muscle, myenteric plexus). On the set-up: species or system tissue. The following applies: antagonist affinity from rightward shift of R-(α)-methylhistamine E/[A] curves (Schild), typical variance ±0.15 log units; for Kb: read-out: pKb (Guinea pig ileum) (converted). In outline:
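Longitudinal muscle–myenteric plexus strips from male Dunkin-Hartley guinea pigs (250-300 g), Krebs-Henseleit buffer at 37±1° C, field-stimulated at 0.1 Hz, 0.5 msec, supramaximal voltage; isometric recording. Cumulative R-(α)-methylhistamine E/[A] curves as % inhibition of twitch height; antagonist affinity by Schild analysis of rightward shift.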

Test [2] deals with T1, Histamine H3 receptor. Nature of the test: Histamine H3 radioligand binding assay, guinea pig cortex ([3H]-R-α-methylhistamine). Particulars: guinea pig cortex membranes, competition with 1 nM [3H]-R-α-methylhistamine; for Ki: read-out: pKi (Guinea pig cortex) (converted). In outline:
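Male Dunkin Hartley guinea pig cortical membranes incubated 165 min at 21±3 °C in 20 mM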

The structures appear in SMILES notation. Counter-ions that a name gives are not always drawn.

T1 sequence (Q9JI35 whole entry): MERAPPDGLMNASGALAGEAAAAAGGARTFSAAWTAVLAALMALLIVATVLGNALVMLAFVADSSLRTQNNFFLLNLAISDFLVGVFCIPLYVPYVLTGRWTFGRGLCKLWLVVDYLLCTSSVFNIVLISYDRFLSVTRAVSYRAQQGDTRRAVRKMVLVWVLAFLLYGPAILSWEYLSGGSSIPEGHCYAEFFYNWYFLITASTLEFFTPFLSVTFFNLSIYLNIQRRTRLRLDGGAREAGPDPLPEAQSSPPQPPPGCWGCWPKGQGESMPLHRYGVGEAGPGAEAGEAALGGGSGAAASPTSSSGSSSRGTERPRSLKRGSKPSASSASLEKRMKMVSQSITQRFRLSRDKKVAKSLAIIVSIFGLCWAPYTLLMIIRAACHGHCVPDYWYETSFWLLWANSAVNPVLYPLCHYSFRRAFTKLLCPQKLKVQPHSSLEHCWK

As for `Cc1ccccc1CN(CCCCCCN1CCCC1)C(=N)N` [Example 76, N-(2-Methylbenzyl)-N-(6-pyrrolidin-1-yl-hexyl)-guanidine bis-hydrochloride], on Histamine H3 receptor [1], the Kb is 7.94 nM. For the same molecule, at Histamine H3 receptor [2], the Ki was 1.58 nM.
As for `Cl.Cl.N=C(NCCCCCCN1CCCC1)NCC12CC3CC(CC(C3)C1)C2` [Example 77, N-Adamantan-1-yl-methyl-N-(6-pyrrolidin-1-yl-hexyl)-guanidine bis-hydrochloride], the “pKb (Guinea pig ileum)” value on Histamine H3 receptor [1] turned out to be 8.0. Moreover, on Histamine H3 receptor [2] (bis-hydrochloride), the “pKi (Guinea pig cortex)” value is listed as 8.2.
As for `N=C(N)N(CCCCCCN1CCCC1)CCC12CC3CC(CC(C3)C1)C2` [Example 78, N-(2-Adamantan-1-yl-ethyl)-N-(6-pyrrolidin-1-yl-hexyl)-guanidine bis-hydrochloride], at Histamine H3 receptor [1], the Kb was 31.6 nM. Moreover, the Ki on Histamine H3 receptor [2] is 79.4 nM.
Taken in the same sequence, the figures for `O=S(=O)(NCCN1CCCC1)c1ccc2ccccc2c1` [Example 81, N-(2-Pyrrolidin-1-yl-ethyl)-2-naphthalenesulfonamide] were 1260 nM and 126 nM.
Taken in the same sequence, the figures for `O=S(=O)(NCCCN1CCCC1)c1ccc2ccccc2c1` [Example 82, N-(3-Pyrrolidin-1-yl-propyl)-2-naphthalenesulfonamide] were 1000 nM and 316 nM.
Taken in the same sequence, the figures for `O=S(=O)(NCCCCN1CCCC1)c1ccc2ccccc2c1` [Example 83, N-(4-Pyrrolidin-1-yl-butyl)-2-naphthalenesulfonamide] were 631 nM and 251 nM.
Turning to `O=S(=O)(NCCN1CCCCC1)c1ccc2ccccc2c1` [Example 84, N-(2-Piperidin-1-yl-ethyl)-2-naphthalenesulfonamide], the Kb at Histamine H3 receptor [1] was 794 nM. Further, the Ki on Histamine H3 receptor [2] was 501 nM.
Regarding `O=S(=O)(CCCCN1CCCC1)c1ccc2ccccc2c1` [Example 88], the Kb on Histamine H3 receptor [1] is 1260 nM. The Ki on Histamine H3 receptor [2] was 631 nM.
With `CN1CCCC1CCNS(=O)(=O)c1ccc2ccccc2c1` (centres unmarked) [Example 89, N-(2-(1-Methyl-pyrrolidin-2-yl)-ethyl)-2-naphthalenesulfonamide], the Kb at Histamine H3 receptor [1] is 631 nM. In addition, the Ki at Histamine H3 receptor [2] was 100 nM.
In the case of `CN1CCC[C@H]1CCCNS(=O)(=O)c1ccc2ccccc2c1` [Example 91, N-(3-(1-Methyl-pyrrolidin-2S-yl)-propyl)-2-naphthalenesulfonamide], the Kb at Histamine H3 receptor [1] was 501 nM. Besides, the Ki at Histamine H3 receptor [2] is 126 nM.
`CN1CCC[C@H]1CCCNS(=O)(=O)c1ccc(Cl)cc1` [Example 98, N-(3-(1-Methyl-pyrrolidin-2S-yl)-propyl)-(4-chlorophenyl)-sulfonamide]: the Kb at Histamine H3 receptor [1] is 794 nM. The Ki on Histamine H3 receptor [2] is 794 nM.
Take `CN1CCC[C@H]1CCCNS(=O)(=O)Cc1ccc(Cl)cc1` [Example 99]: the Kb at Histamine H3 receptor [1] was 316 nM. The Ki on Histamine H3 receptor [2] was 200 nM.
Taken in the same sequence, the figures for `CN1CCC[C@H]1CCCNS(=O)(=O)Cc1ccccc1` [Example 100, N-(3-(1-Methyl-pyrrolidin-2S-yl)-propyl)-phenyl-methanesulfonamide] were 501 nM and 200 nM.
Take `CN1CCC[C@H]1CCCNS(=O)(=O)Cc1ccc(Br)cc1` [Example 101, N-(3-(1-Methyl-pyrrolidin-2S-yl)-propyl)-(4-bromophenyl)-methanesulfonamide]: the Kb at Histamine H3 receptor [1] was 1000 nM. Also, at Histamine H3 receptor [2], the Ki was 251 nM.
For `CN1CCC[C@H]1CCCNS(=O)(=O)CCc1ccc(Cl)cc1` [Example 102, N-(3-(1-Methyl-pyrrolidin-2S-yl)-propyl)-2-(4-chlorophenyl)-ethanesulfonamide], in that order: 316 nM and 63.1 nM.
Taken in the same sequence, the figures for `CN1CCC[C@H]1CCCNS(=O)(=O)CCCc1ccc(Cl)cc1` [Example 103, N-(3-(1-Methyl-pyrrolidin-2S-yl)-propyl)-3-(4-chlorophenyl)-propanesulfonamide] were 316 nM and 126 nM.
For `CN1CCCC1CCCCNS(=O)(=O)Cc1ccc(Cl)cc1` (stereo not drawn) [Example 104, N-(4-(1-Methyl-pyrrolidin-2S-yl)-butyl)-(4-chlorophenyl)-methanesulfonamide], in that order: 398 nM and 398 nM.
Turning to `CN1CCCC1CCCCCNS(=O)(=O)Cc1ccc(Cl)cc1` (stereo not drawn) [Example 105, N-(5-(1-Methyl-pyrrolidin-2S-yl)-pentyl)-(4-chlorophenyl)-methanesulfonamide], the Kb on Histamine H3 receptor [1] was 501 nM. The Ki at Histamine H3 receptor [2] was 398 nM.
Regarding `O=S(=O)(Cc1ccc(Cl)cc1)NCCCN1CCCC1` [Example 106, N-(3-Pyrrolidin-1-yl-propyl)-(4-chlorophenyl)-methanesulfonamide], on Histamine H3 receptor [1], the Kb is 631 nM. The Ki on Histamine H3 receptor [2] is 1000 nM.
For `CN1CCC[C@H]1CCCNS(=O)(=O)NCc1ccc(Cl)cc1` [Example 107, N-(4-Chlorobenzyl)-N′-(3-(1-methyl-pyrrolidin-2S-yl)-propyl)-sulfamide], in that order: 158 nM and 100 nM.
For `CN1CCC[C@H]1CCCNS(=O)(=O)NCC1CCCCC1` [Example 110, N-Cyclohexyl-methyl-N′-(3-(1-methyl-pyrrolidin-2S-yl)-propyl)-sulfamide], in that order: 2510 nM and 501 nM.
For the molecule `CN1CCC[C@H]1CCCNS(=O)(=O)Nc1ccc(Cl)cc1` [Example 112, N-(4-Chlorophenyl)-N′-(3-(1-methyl-pyrrolidin-2S-yl)-propyl)-sulfamide], the Kb on Histamine H3 receptor [1] is 1580 nM. Moreover, the Ki on Histamine H3 receptor [2] is 398 nM.
Taken in the same sequence, the figures for `CN1CCC[C@H]1CCCNS(=O)(=O)NCc1ccc(Br)cc1` [Example 113, N-(4-Bromobenzyl)-N′-(3-(1-methyl-pyrrolidin-2S-yl)-propyl)-sulfamide] were 200 nM and 100 nM.
For `CN1CCC[C@H]1CCCNS(=O)(=O)NCc1ccc(I)cc1` [Example 114, N-(4-Iodobenzyl)-N′-(3-(1-methyl-pyrrolidin-2S-yl)-propyl)-sulfamide], in that order: 100 nM and 316 nM.
Taken in the same sequence, the figures for `CN1CCC[C@H]1CCNS(=O)(=O)NCc1ccc(Cl)cc1` [Example 115, N-(4-Chlorobenyl)-N′-(2-(1-methyl-pyrrolidin-2S-yl)-ethyl)-sulfamide] were 398 nM and 501 nM.
As for `CN1CCCC1CCCCNS(=O)(=O)NCc1ccc(Cl)cc1` (stereo not drawn) [Example 116, N-(4-Chlorobenzyl)-N′-(4-(1-methyl-pyrrolidin-2S-yl)-butyl)-sulfamide], the Kb at Histamine H3 receptor [1] is 200 nM. Further, the Ki on Histamine H3 receptor [2] is 126 nM.
`CC(C)CN1CCC[C@H]1CCCNS(=O)(=O)NCc1ccc(Cl)cc1` [Example 119]: at Histamine H3 receptor [1], the Kb was 2000 nM. Besides, the Ki at Histamine H3 receptor [2] was 15.8 nM.
As for `CN1CCC[C@H]1CCCN(C)S(=O)(=O)N(C)Cc1ccc(Cl)cc1` [Example 120, N-(4-Chlorobenzyl)-N,N′-dimethyl-N′-(3-(1-methyl-pyrrolidin-2S-yl)-propyl)-sulfamide], the Kb at Histamine H3 receptor [1] is 501 nM. The Ki on Histamine H3 receptor [2] was 501 nM.
As to `CN1CCC[C@H]1CCCNS(=O)(=O)N(C)Cc1ccc(Cl)cc1` [Example 121, N-(4-Chlorobenzyl)-N-methyl-N′-(3-(1-methyl-pyrrolidin-2S-yl)-propyl)-sulfamide], at Histamine H3 receptor [1], the Kb is 1000 nM. For the same molecule, the Ki on Histamine H3 receptor [2] was 316 nM.
Turning to `CN1CCC[C@H]1CCCN(C)S(=O)(=O)NCc1ccc(Cl)cc1` [Example 122, N-(4-Chlorobenzyl)-N′-methyl-N′-(3-(1-methyl-pyrrolidin-2S-yl)propyl)-sulfamide], the Kb at Histamine H3 receptor [1] was 316 nM. For the same molecule, at Histamine H3 receptor [2], the Ki is 126 nM.
For `CN1CCC[C@H]1CCCN(CCCN1C(=O)c2ccccc2C1=O)S(=O)(=O)NCc1ccc(Cl)cc1` [Example 125, N-(4-Chlorobenzyl)-N′-(3-phthalimido-propyl)-N′-(3-(1-methyl-pyrrolidin-2S-yl)propyl)-sulfamide], in that order: greater than 3160 nM and 316 nM.
As to `CNC(=O)CN(CCC[C@@H]1CCCN1C)S(=O)(=O)NCc1ccc(Cl)cc1` [Example 127, N-(4-Chlorobenzyl)-N′-(methylamidomethyl)-N′-(3-(1-methyl-pyrrolidin-2S-yl)propyl)-sulfamide], the Kb at Histamine H3 receptor [1] was 2000 nM. Further, at Histamine H3 receptor [2], the Ki is 2000 nM.
As for `CN1CCC[C@H]1CCCN(CCCc1ccc(Cl)cc1)S(=O)(=O)NCc1ccc(Cl)cc1` [Example 131, N-(4-Chlorobenzyl)-N′-(3-(4-chlorophenyl)propyl)-N′-(3-(1-methyl-pyrrolidin-2S-yl)propyl)-sulfamide], the Kb on Histamine H3 receptor [1] is greater than 3160 nM. Also, the Ki at Histamine H3 receptor [2] was 1000 nM.
For the molecule `CN1C[C@H](O)C[C@@H]1CCCNS(=O)(=O)NCc1ccc(Cl)cc1` [Example 132, N-(4-Chlorobenzyl)-N′-(3-(4R-hydroxy-1-methyl-pyrrolidin-2S-yl)-propyl)-sulfamide], on Histamine H3 receptor [1], the “pKb (Guinea pig ileum)” value was determined as 5.8. Besides, the “pKi (Guinea pig cortex)” value at Histamine H3 receptor [2] stood at 6.9.
With `CN1CC(OCc2ccc(Cl)cc2)CC1CCCNS(=O)(=O)NCc1ccc(Cl)cc1` (stereo not drawn) [Example 133, N-(4-Chlorobenzyl)-N′-(3-(4R-(4-chlorobenzyloxy)-1-methyl-pyrrolidin-2S-yl)-propyl)-sulfamide], the Kb on Histamine H3 receptor [1] is greater than 3160 nM. The Ki at Histamine H3 receptor [2] was 2510 nM.
For `O=S(=O)(NCCCN1CCCC1)NCc1ccc(Cl)cc1` [Example 135, N-(4-Chlorobenzyl)-N′-(3-pyrrolidin-1-yl-propyl)-sulfamide], in that order: 631 nM and 316 nM.
Consider `CN1CCCC1CCCCS(=O)(=O)NCc1ccc(Cl)cc1` (stereo not drawn) [Example 136, N-(4-Chlorobenzyl)-4-(1-methyl-pyrrolidin-2S-yl)-butanesulfonamide], for which the Kb at Histamine H3 receptor [1] was 316 nM. Also, the Ki at Histamine H3 receptor [2] was 316 nM.

For the origin of these results see US6878736B1, “Histamine H3 receptor ligands” (James Black Foundation Limited, priority 1998, dated 2005).
